According to ChEMBL document CHEMBL1955858, “Synthesis and biological evaluation of novel amprenavir-based P1-substituted bi-aryl derivatives as ultra-potent HIV-1 protease inhibitors” (Bioorg Med Chem Lett, 2012):

How the values were obtained:
Protease = Protease (Human immunodeficiency virus 1, UniProt Q9YQ12); assay: Inhibition of HIV1 protease using Arg-Glu(EDANS)-Ser-Gln-Asn-Tyr-Pro-Ile-Val-Gln-Lys(DABCYL)- Arg as substrate for 20 to 30 mins by FRET analysis
[1] = system: Human immunodeficiency virus 1; assay: Antiviral activity against HIV1 3B infected in human C8166 cells assessed as inhibition of syncytia formation after 3 days; assay type: functional, organism-based; conditions: Human immunodeficiency virus 1, 3B, C8166, 72 h
[2] = Cytostatic activity against human C8166 cells by MTT assay; assay type: cell-based
[3] = Selectivity index, ratio of CC50 for human C8166 cells to EC50 for HIV1 3B; assay type: toxicity, cell-based; conditions: read-out: Ratio CC50/EC50
[4] = biological target: Protease (Human immunodeficiency virus 1) (UniProt Q9YQ12); assay: Ratio of amprenavir Ki to compound Ki for HIV1 protease
[5] = system: Human immunodeficiency virus 1; assay: Ratio of amprenavir EC50 to compound EC50 for HIV1 3B; assay type: functional

Protease, sequence (Q9YQ12 whole entry): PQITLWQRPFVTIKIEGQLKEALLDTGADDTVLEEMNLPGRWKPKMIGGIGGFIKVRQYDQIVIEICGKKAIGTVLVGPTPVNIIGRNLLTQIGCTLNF
Protease (Human immunodeficiency virus 1), sequence (Q9YQ12 as listed by the source): as the sequence (Q9YQ12 whole entry) above

SMILES	Ki (Protease) [nM]	EC50 [1] [nM]	Ratio Ki [4]	CC50 [2] [nM]	selectivity ratio [3]	Ratio EC50 [5]
COC(=O)c1cccc(-c2ccc(C[C@H](NC(=O)O[C@H]3CCOC3)[C@H](O)CN(CC(C)C)S(=O)(=O)c3ccc(OC)cc3)cc2)c1	1.6	3.46		190000	54900	
COc1ccc(S(=O)(=O)N(CC(C)C)C[C@@H](O)[C@H](Cc2ccc(-c3cccnc3)cc2)NC(=O)O[C@H]2CCOC2)cc1	1.6	3.08		210000	68200	
CC(C)CN(C[C@@H](O)[C@H](Cc1ccc(-c2cccnc2)cc1)NC(=O)O[C@H]1CCOC1)S(=O)(=O)c1ccc(N)cc1	0.33	0.1	2	200000	2e+06	30
CC(C)CN(C[C@@H](O)[C@H](Cc1ccc(-c2ccccc2)cc1)NC(=O)O[C@H]1CCOC1)S(=O)(=O)c1ccc(N)cc1	1.98	2.25		32000	14200	
CC(C)CN(C[C@@H](O)[C@H](Cc1ccccc1)NC(=O)O[C@H]1CCOC1)S(=O)(=O)c1ccc(N)cc1 [AMPRENAVIR]	0.84	2.93		230000	78500	
COc1ccc(S(=O)(=O)N(CC(C)C)C[C@@H](O)[C@H](Cc2ccc(-c3cccc(C#N)c3)cc2)NC(=O)O[C@H]2CCOC2)cc1	8.1	9.2		320000	34800	
COc1ccc(S(=O)(=O)N(CC(C)C)C[C@@H](O)[C@H](Cc2ccc(-c3ccsc3)cc2)NC(=O)O[C@H]2CCOC2)cc1	3.5	4.48		160000	35700	
COc1ccc(S(=O)(=O)N(CC(C)C)C[C@@H](O)[C@H](Cc2ccc(-c3ccc(OC)c(C)c3)cc2)NC(=O)O[C@H]2CCOC2)cc1	1.8	3.63		170000	46800	
CC(C)CN(C[C@@H](O)[C@H](Cc1ccc(-c2ccncc2)cc1)NC(=O)O[C@H]1CCOC1)S(=O)(=O)c1ccc(N)cc1	0.086	0.1		260000	2.6e+06	30

More lines, main results first:

Ki (Protease) [nM]	EC50 [1] [nM]	Ratio Ki [4]	SMILES	CC50 [2] [nM]	selectivity ratio [3]	Ratio EC50 [5]
3.8	2.68		COc1ccc(S(=O)(=O)N(CC(C)C)C[C@@H](O)[C@H](Cc2ccc(-c3ccncc3)cc2)NC(=O)O[C@H]2CCOC2)cc1	260000	97000	
7.4	6.89		COc1ccc(S(=O)(=O)N(CC(C)C)C[C@@H](O)[C@H](Cc2ccc(-c3ccc(SC)cc3)cc2)NC(=O)O[C@H]2CCOC2)cc1	240000	34800	
5.2	6.04		COc1ccc(S(=O)(=O)N(CC(C)C)C[C@@H](O)[C@H](Cc2ccc(-c3ccc(OC(F)(F)F)cc3)cc2)NC(=O)O[C@H]2CCOC2)cc1	170000	28100	
1.9	5.53		COc1ccc(S(=O)(=O)N(CC(C)C)C[C@@H](O)[C@H](Cc2ccc(-c3ccc(C(=O)O)cc3)cc2)NC(=O)O[C@H]2CCOC2)cc1	140000	25300	
5.8	3.98		COc1ccc(S(=O)(=O)N(CC(C)C)C[C@@H](O)[C@H](Cc2ccc(-c3ccc(F)cc3)cc2)NC(=O)O[C@H]2CCOC2)cc1	140000	35200	
6.4	4.29		COc1ccc(S(=O)(=O)N(CC(C)C)C[C@@H](O)[C@H](Cc2ccc(-c3ccc(Cl)cc3)cc2)NC(=O)O[C@H]2CCOC2)cc1	230000	53600	
4.3	4.3		COc1ccc(S(=O)(=O)N(CC(C)C)C[C@@H](O)[C@H](Cc2ccc(-c3cccc(O)c3)cc2)NC(=O)O[C@H]2CCOC2)cc1	41000	9540	
5.8	2.32		COc1ccc(S(=O)(=O)N(CC(C)C)C[C@@H](O)[C@H](Cc2ccc(-c3ccc(C(C)=O)cc3)cc2)NC(=O)O[C@H]2CCOC2)cc1	210000	90500	
